One experiment deals with T1, VLA-4 (Homo sapiens, UniProt P05556+P13612).
T1 construct: the α4-integrin (VLA-4), which is expressed on myeloma cells; endogenous in cells; host or cells: CAG human myeloma cells (HPSE^low), whole-cell lysate
Nature of the experiment: GST pull down assay: capture of VLA-4 by GST-S1ED. The settings on record: HPSE^low cell lysates; peptide 30 M [sic]. In kind it is binding. The protocol: FIGS. 6A-G. Peptides derived from the active site in Sdc1 activate or inhibit adhesion and invasion. (FIG. 6A) Transwell migration assays towards FN (for 16 hrs) were performed for HPSE low or high cells in the presence of 0, 0.3, 3, and 30 μM of S1ED^210-240. Cells migrating to the bottom side of the filter were counted from five random images for each treatment. (FIG. 6B) The sequence of S1ED210-240 is shown (SEQ ID NO: 3), as well as […] truncation mutants of the peptide (SEQ ID NOs: 5, 2, 4 and 7). Amino acids shown in red appear necessary for the spreading and invasive activity. (FIG. 6C) Images of HPSE^low and HPSE^high cells plated on FN for 2 hr. (FIG. 6D) HPSE^low cells were treated with 0, 0.3, 3, 10 and 30 μM of S1ED^210-236, S1ED^210-233, or S1ED^214-240, plated on FN for 2 hr, fixed and stained with fluorescent phalloidin. Cells from five random images were quantified for cell attachment and cell spreading. (FIG. 6E) HPSE^high cells were treated with 0, 3, 10, and 30 μM of S1ED^210-236, S1ED^210-233, and S1ED^214-240, plated on FN for 2 hr, then fixed, imaged and quantified as in FIG. 6D. (FIG. 6F) Transwell migration assays towards FN (for 16 hr) were performed for HPSE^low or HPSE^high cells in the presence of 30 μM of S1ED^210-236, S1ED^210-233, S1ED^214-240 and Vandetanib. (FIG. 6G) HPSE^low cell lysates were incubated overnight with glutathione beads coated with GST or GST-S1ED in the absence or presence of 30 μM of S1ED^210-236, S1ED^210-233, and S1ED^214-240. Capture of VLA-4 or VEGFR2 was detected by immunoblotting. Sequences in FIG. 6B are 210-240 (SEQ ID NO: 3), 210-236 (SEQ ID NO: 2), 210-233 (SEQ ID NO: 4), 214-240 (SEQ ID NO: 5) and 214-236 (SEQ ID NO: 7).
CAG cells were washed with CMF-PBS and then lysed for 20 min on ice in lysis buffer. Cell debris was removed by centrifugation at 13000 rpm for 20 min at 4° C. Whole cell lysates were then incubated at 4° C. overnight with either 3 μM GST or 3 μM GST-S1ED in the absence or presence of 1 μM, 3 μM, and 10 μM S1ED^210-240 peptide. GST or GST-S1ED was captured by addition of glutathione Sepharose and the beads were washed with ice-cold lysis buffer and CMF-PBS, prior to addition of SDS-PAGE sample buffer and analyszed by electrophoresis and western blotting as described previously.

A further experiment addresses T2, VEGFR2 (Homo sapiens, UniProt P35968).
T2 construct: endogenous in cells; host or cells: CAG human myeloma cells (HPSE^low = empty vector; HPSE^high = human HPSE cDNA)
Nature of the experiment: VEGFR2 activation (pY1054/1059 immunoblot) in HPSE^low CAG cells. Particulars: 0.3 μM peptide, 2.5 h. In kind it is cell-based. The protocol:
FIGS. 4A-C. HPSE expression leads to activation of VEGFR2 when α4-integrin engages ligand. (FIG. 4A) HPSE^low and HPSE^high cells treated with or without 1 μM Vandetanib, 20 ng/ml VEGF, or 20 μg/ml VEGFR2 blocking antibody are plated on VCAM-1 to observe cell spreading (Bar=50 μm); (FIG. 4B) HPSE^high cells plated on FN were treated with MMP-9 blocking antibody or 1 μM Vandetanib in the absence or presence of 0.3 μM S1ED^210-236 (Bar=50 μm); (FIG. 4C) HPSE^low cells were kept in suspension or were seeded on FN in the absence or presence of 0.3 μM S1ED^210-236 for 2.5 h. Cell lysates were immunoblotted with antibodies against pY1054/1059 in VEGFR2 as a marker of VEGFR2 activation. Actin is shown as a loading control.
The inventors next questioned whether VEGFR2 is upstream (e.g., responsible for shedding) or downstream (e.g., a target of the shed Sdc1) of Sdc1 shedding by testing whether or not Sdc1 mimetic peptide could rescue Vandetinib-blocked spreading. HPSE^high cell spreading on FN was inhibited using either anti-MMP9 blocking antibody or Vandetanib in the presence or absence of S1ED^210-236. […] VEGFR2 activation was assessed by measuring autophosphorylation at Tyr1054/1059 in its kinase domain (Lamalice et al., 2007).
(In general: Immunoblotting shows a protein as a band on a membrane.)

The test system of experiment [1] is P3x63Ag8 mouse myeloma cells. Kind of experiment: Invasion of P3x63Ag8 myeloma cells through FN-coated filters. The experiment is classed as cell-based. The settings on record: 16 hr. The method, then: FIG. 7A-B. S1ED^214-236, specific for VEGFR2 coupling to VLA-4, blocks myeloma cell invasion but not adhesion. (FIG. 7A) P3x63Ag8 mouse myeloma cells are plating on the VLA-4 ligand FN in the presence or absence of 30 uM S1ED^210-233 (SEQ ID No: 4) or S1ED^214-236 (SEQ ID No: 7) for 2.5 hr. (FIG. 7B) P3x63Ag8 myeloma cells are plated on FN-coated filters in the presence of HPSE inhibitor OGT2115, VLA-4 blocking antibody P1H4, VEGFR2 inhibitor Vandetanib or S1ED^210-233 or S1ED^214-236 and allowed to migrate through the filter for 16 hr. Small black dots are the pores in the filter.
The bottom chambers of Transwell filter chambers (8 μm pores; Corning) were coated with 40 μg/ml of FN. Cells (5×10^5 in 0.2 ml plating medium) were placed in the upper chamber and incubated for 16 hr at 37° C. in the CO2 incubator. After incubation, cells in the upper chamber were removed and cells on the bottom side of the filter were fixed in 4% paraformaldehyde (PFA) and stained with 0.1% Crystal Violet before imaging. Cells from at least five random fields were counted.

No end group written: not given here.

T2 sequence (P35968 20-1356): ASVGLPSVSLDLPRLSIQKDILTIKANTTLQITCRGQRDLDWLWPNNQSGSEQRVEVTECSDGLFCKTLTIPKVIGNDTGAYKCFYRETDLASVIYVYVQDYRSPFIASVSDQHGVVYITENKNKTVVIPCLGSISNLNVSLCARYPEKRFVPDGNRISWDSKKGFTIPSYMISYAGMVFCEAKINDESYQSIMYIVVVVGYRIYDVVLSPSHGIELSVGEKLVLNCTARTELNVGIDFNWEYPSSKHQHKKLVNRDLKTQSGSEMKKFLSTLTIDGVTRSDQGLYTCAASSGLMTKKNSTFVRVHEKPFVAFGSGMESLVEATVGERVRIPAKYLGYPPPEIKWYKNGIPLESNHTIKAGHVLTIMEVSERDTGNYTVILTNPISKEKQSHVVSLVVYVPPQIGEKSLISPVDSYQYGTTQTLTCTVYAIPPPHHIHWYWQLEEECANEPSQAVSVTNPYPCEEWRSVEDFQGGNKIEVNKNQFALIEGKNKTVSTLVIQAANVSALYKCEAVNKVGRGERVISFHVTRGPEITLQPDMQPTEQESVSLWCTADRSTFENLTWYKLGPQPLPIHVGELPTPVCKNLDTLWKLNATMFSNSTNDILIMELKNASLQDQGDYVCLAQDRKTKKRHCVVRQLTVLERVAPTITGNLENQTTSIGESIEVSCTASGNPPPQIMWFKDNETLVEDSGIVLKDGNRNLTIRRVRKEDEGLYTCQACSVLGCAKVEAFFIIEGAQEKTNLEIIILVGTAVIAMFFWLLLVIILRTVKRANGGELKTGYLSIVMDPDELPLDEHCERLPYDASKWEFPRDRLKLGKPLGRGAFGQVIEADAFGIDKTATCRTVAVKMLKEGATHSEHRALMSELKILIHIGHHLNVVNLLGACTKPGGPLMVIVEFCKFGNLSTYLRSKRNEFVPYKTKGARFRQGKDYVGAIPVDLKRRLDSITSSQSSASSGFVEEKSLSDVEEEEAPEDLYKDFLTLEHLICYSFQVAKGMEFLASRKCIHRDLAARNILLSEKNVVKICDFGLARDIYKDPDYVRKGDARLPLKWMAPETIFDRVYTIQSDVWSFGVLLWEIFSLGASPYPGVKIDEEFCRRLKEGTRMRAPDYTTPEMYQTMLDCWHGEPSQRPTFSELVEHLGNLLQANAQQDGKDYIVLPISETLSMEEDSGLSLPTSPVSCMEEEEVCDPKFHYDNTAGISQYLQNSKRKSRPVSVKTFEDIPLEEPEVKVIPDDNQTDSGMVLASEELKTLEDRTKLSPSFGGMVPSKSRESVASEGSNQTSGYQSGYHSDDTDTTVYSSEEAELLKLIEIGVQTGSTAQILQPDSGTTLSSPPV
T1 sequence (P13612 34-1032): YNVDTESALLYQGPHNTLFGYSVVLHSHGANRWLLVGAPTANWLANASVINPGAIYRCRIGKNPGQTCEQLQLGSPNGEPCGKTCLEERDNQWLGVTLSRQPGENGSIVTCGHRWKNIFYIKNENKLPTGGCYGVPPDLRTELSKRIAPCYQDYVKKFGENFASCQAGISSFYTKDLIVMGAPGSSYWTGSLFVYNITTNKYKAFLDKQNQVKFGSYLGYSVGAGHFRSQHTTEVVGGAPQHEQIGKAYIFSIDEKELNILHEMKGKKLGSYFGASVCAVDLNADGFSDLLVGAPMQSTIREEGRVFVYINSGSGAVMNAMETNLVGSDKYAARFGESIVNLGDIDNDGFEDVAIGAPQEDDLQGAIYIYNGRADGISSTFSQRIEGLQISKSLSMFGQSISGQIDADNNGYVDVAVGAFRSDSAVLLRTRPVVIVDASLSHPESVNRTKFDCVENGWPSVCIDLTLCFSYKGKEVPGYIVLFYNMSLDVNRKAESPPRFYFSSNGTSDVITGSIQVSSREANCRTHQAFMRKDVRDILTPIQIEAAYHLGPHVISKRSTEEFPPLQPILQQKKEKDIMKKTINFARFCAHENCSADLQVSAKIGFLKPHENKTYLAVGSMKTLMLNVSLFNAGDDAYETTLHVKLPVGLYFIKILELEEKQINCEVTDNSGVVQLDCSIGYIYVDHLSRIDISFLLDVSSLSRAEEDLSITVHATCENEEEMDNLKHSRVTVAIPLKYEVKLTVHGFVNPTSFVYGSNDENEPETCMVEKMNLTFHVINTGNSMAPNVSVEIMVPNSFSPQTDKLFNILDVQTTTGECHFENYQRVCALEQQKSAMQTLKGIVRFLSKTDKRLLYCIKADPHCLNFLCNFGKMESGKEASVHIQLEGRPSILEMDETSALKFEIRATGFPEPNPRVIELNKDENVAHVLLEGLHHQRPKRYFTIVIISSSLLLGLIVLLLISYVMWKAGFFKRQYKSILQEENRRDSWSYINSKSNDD
T1 sequence (P05556 21-798): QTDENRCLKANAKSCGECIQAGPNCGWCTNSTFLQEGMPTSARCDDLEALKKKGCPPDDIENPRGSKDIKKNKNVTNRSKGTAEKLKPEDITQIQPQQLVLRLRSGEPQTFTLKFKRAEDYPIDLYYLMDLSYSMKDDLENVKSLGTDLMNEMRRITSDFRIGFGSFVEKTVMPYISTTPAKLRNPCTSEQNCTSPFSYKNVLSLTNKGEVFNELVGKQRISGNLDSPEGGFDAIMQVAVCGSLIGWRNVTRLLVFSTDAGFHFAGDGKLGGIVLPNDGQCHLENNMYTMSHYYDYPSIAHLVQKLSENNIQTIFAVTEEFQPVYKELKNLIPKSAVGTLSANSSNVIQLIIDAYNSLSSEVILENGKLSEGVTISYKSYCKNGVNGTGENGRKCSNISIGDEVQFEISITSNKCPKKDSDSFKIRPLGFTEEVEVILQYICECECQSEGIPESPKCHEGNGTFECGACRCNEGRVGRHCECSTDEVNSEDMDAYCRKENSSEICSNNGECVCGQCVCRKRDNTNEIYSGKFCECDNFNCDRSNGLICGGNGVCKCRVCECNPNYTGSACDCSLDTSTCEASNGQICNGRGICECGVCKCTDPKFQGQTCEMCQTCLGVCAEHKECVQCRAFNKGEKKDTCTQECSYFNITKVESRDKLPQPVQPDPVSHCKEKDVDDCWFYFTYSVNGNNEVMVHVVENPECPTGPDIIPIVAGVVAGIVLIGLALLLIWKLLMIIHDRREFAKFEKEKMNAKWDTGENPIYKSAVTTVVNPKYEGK

On to “DFTFETSGENTAVVAVEPDRRNQSPVD [S1ED^210-236]”, for which, on VLA-4, the “competition for capture of VLA-4 by GST-S1ED” value was “effectively blocks capture of both receptors”. Besides, the “VEGFR2 phosphorylation at Tyr1054/1059” value is listed as “no alteration of VEGFR2 phosphorylation” on VEGFR2 (HPSE^low cells in suspension) and “causes VEGFR2 phosphorylation in HPSE^low cells plated on FN” on VEGFR2 (HPSE^low cells plated on FN).

Regarding “S1ED^210-233: syndecan-1 ectodomain peptide, residues 210-233 (SEQ ID NO: 4) (DFTFETSGENTAVVAVEPDRRNQS)”, in experiment [1], the “invasion / migration of P3X cells through FN-coated filters” value was “blocked by either peptide”.

The values are drawn from patent US9878007B2, “Syndecan peptides and polypeptides as inhibitors of vascular endothelial growth factor receptor-2 (VEGFR2) and very late antigen-4 (VLA-4)” (Wisconsin Alumni Research Foundation, priority 2015, dated 2018).
